One data set addresses HiBiT tagged Wee1 (Homo sapiens, UniProt P30291). Description: Wee1 protein degradation assay (HiBiT assay). Format: cell-based. To be noted: for Dmax: maximum percentage of Wee1 degradation, read-out: HiBiT Wee1: Dmax.
A further data set concerns NCI-H1048 cells. Description: NCI-H1048 cell proliferation assay (CTG assay). Format: cell-based. The note with it: Homo sapiens, 120 hours, read-out: CTG cellular assay_H1048: IC50. The essentials:
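NCI-H1048 small cell lung cancer cells (RPMI-1640, 10% FBS) were exposed to 10-point half-log compound dilutions from 10 μM to 0.316 nM for 120 h at 37° C., 5% CO2. Viability was read by CellTiter-Glo luminescence and normalized to DMSO as percent of control. EC50 and DC50 were fitted with a four-parameter logistic model.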

The nature of data set [1]: Pharmacokinetic study in mice (IV and PO). It is filed as in vivo. To be noted: male CD1 mice; for F: PO (10 mg/kg) vs IV (2 mg/kg); for AUC(0-inf) / clearance / half-life / Cmax: mouse, plasma; for half-life: read-out: T½ (converted). As to the method:
Objective: the objective of this study was to determine the pharmacokinetics of test compound following intravenous (IV) and oral (PO) administration to male CD1 mice.
Materials: Male CD1 mouse (20-30 g, 6-8 weeks, Zhejiang Vital River Laboratory Animal Technology Co., Ltd.).
The CD1 mice were administered with the test article intravenously via tail vein at 2 mg/kg or orally at 10 mg/kg. The animals had free access to food and water. After dose administration, blood was collected from the dorsal metatarsal vein at 5 min (0.0833 h, IV only), 15 min (0.25 h), 30 min (0.5 h), 60 min (1 h), 2 h, 4 h, 6 h, 8 h and 24 h. Blood samples were placed in an anticoagulant tube with EDTA-K2, mixed adequately and centrifuged at 4° C., 4000 g for 5 minutes to get the plasma. The plasma samples were stored at −75±15° C. until analyzed by LC-MS/MS. The PK parameters were calculated using non-compartmental model by Phoenix WinNonlin 6.1 (Linear/log trapezoidal).

[2] abbreviates: engineered HT-1080 cells, 20 hours.

The record followed here is patent US20250049798A1, “WEE1 PROTEIN KINASE DEGRADATION AGENT AND USE THEREOF” (HANGZHOU GLUBIO PHARMACEUTICAL CO. LTD., priority 2021, published 2025).

Broadly, the DC50 is the midpoint of the concentration-degradation curve. Higher therefore signals a less potent degrader. One may read the Dmax as the greatest extent of degradation seen. For orientation: IC50 means the midpoint of a concentration-inhibition curve. For orientation: AUC(0-inf) means total exposure, with the tail of the curve extrapolated. Read a low AUC(0-inf) as less exposure. Broadly, the Cmax is the highest concentration seen after dosing.

Where two headings read alike, the source gives them in different places. Some results are limits rather than exact numbers.

Sequence of HiBiT tagged Wee1 (P30291 whole entry): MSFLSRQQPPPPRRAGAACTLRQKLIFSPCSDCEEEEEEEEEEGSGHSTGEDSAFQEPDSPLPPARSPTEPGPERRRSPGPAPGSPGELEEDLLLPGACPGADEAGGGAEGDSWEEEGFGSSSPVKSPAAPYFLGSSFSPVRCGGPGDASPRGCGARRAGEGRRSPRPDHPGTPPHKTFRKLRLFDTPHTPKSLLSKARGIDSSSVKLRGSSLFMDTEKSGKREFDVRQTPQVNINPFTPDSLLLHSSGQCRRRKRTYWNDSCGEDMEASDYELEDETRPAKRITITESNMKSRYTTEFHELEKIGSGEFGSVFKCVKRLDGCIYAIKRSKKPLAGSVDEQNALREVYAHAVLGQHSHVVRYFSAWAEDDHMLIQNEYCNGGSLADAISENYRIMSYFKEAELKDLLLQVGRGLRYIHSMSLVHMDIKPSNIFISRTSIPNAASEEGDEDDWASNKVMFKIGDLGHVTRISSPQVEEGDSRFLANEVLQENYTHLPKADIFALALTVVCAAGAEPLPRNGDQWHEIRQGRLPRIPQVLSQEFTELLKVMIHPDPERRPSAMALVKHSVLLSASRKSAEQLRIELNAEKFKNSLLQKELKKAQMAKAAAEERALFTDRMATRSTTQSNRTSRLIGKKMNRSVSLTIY

As to `C=CCn1c(=O)c2cnc(Nc3ccc(N4CCC(CN5CCN(c6ccc(NC7CCC(=O)NC7=O)cc6F)CC5)CC4)cc3)nc2n1-c1cccc(C(C)(C)O)n1` (centres unmarked) [Compound 71], on HiBiT tagged Wee1 (setting [2]), the DC50 was less than 100 nM and the Dmax was more than 75%. Further, the concentration for half-maximal inhibition (IC50) in the data set with NCI-H1048 cells was not above 25 nM. This compound registered a F in data set [1] of 75.4%. Moreover, in data set [1] (IV (2 mg/kg)), the total exposure AUC(0-inf) was 6730 ng·h/mL, the clearance turned out to be 4.95 mL/min/kg and the half-life was 2.79 h. For the same compound, in data set [1] (PO (10 mg/kg)), the area under the curve AUC(0-inf) is 25400 ng·h/mL, the peak level (Cmax) was 2730 ng/mL and the half-life was 3 h.

On to `C=CCn1c(=O)c2cnc(Nc3ccc(N4CCC(CN5CCC(c6ccc(NC7CCC(=O)NC7=O)cc6)CC5)CC4)cc3)nc2n1-c1cccc(C(C)(C)O)n1` (centres unmarked) [Compound 72], for which, at HiBiT tagged Wee1 (setting [2]), the DC50 is less than 100 nM and the Dmax was more than 75%. For the same compound, in the data set with NCI-H1048 cells, the IC50 was not above 25 nM. The compound further registered a F in data set [1] of 80.2%. For the same compound, in data set [1] (IV (2 mg/kg)), the area under the curve AUC(0-inf) is 1130 ng·h/mL, the clearance amounted to 29.5 mL/min/kg and the half-life is 2.81 h. Besides, in data set [1] (PO (10 mg/kg)), the AUC(0-inf) was 4530 ng·h/mL, the peak concentration (Cmax) stood at 550 ng/mL and the half-life was 2.85 h.

For the compound `C=CCn1c(=O)c2cnc(Nc3ccc(N4CC5(CC(N6CCN(c7ccc(NC8CCC(=O)NC8=O)cc7F)CC6)C5)C4)cc3)nc2n1-c1ccc2c(n1)[C@@](O)(CC)CC2` (some centres unmarked) [Compound 173], on HiBiT tagged Wee1 (setting [2]), the DC50 was less than 100 nM and the maximal degradation (Dmax) was more than 75%. Moreover, in the data set with NCI-H1048 cells, the IC50 was not above 25 nM.

In the case of `C=CCn1c(=O)c2cnc(Nc3ccc(C4CCN(CC5CCN(c6ccc(NC7CCC(=O)NC7=O)cc6F)CC5)CC4)cc3)nc2n1-c1ccc2c(n1)[C@@](O)(CC)CC2` (some centres unmarked) [Compound 109], on HiBiT tagged Wee1 (setting [2]), the 50% degradation concentration (DC50) is less than 100 nM and the greatest degradation seen (Dmax) was in the range of 50 to 75%. Also, in the data set with NCI-H1048 cells, the half-inhibitory concentration (IC50) is not above 25 nM.

Consider `C=CCn1c(=O)c2cnc(Nc3ccc(N4CCN(CC5CCN(c6ncc(NC7CCC(=O)NC7=O)cc6Cl)CC5)CC4)cc3)nc2n1-c1ccc2c(n1)[C@@](O)(CC)CC2` (some centres unmarked) [Compound 181], for which, on HiBiT tagged Wee1 (setting [2]), the half-maximal degradation concentration (DC50) was less than 100 nM and the maximal degradation (Dmax) was more than 75%. Also, in the data set on NCI-H1048 cells, the IC50 was not above 25 nM.

As to `C=CCn1c(=O)c2cnc(Nc3ccc(N4CCC(CN5CCC(c6ccc7c(C8CCC(=O)NC8=O)nn(C)c7c6)CC5)CC4)cc3)nc2n1-c1cccc(C(C)(C)O)n1` (centres unmarked) [Compound 96], at HiBiT tagged Wee1 (setting [2]), the half-maximal degradation concentration (DC50) is less than 100 nM and the Dmax was in the range of 50 to 75%. Further, the IC50 in the data set on NCI-H1048 cells was not above 25 nM.

`C=CCn1c(=O)c2cnc(Nc3ccc(C4CCN(CC5CCN(c6ccc7c(N8CCC(=O)NC8=O)nn(C)c7c6)CC5)CC4)cc3)nc2n1-c1cccc(C(C)(C)O)n1` [Compound 104]: on HiBiT tagged Wee1 (setting [2]), the DC50 was less than 100 nM and the Dmax is more than 75%. Moreover, in the data set on NCI-H1048 cells, the 50% inhibitory concentration (IC50) was not above 25 nM.

Take `C=CCn1c(=O)c2cnc(Nc3ccc(N4C[C@@H](C)N(CC5CCN(c6ccc(NC7CCC(=O)NC7=O)cc6F)CC5)[C@@H](C)C4)cc3)nc2n1-c1ccc2c(n1)[C@@](O)(CC)CC2` (some centres unmarked) [Compound 169]: at HiBiT tagged Wee1 (setting [2]), the DC50 was less than 100 nM and the Dmax is more than 75%. In the data set with NCI-H1048 cells, the IC50 was not above 25 nM.

Take `C=CCn1c(=O)c2cnc(Nc3ccc(N4CCN(CC5(F)CCN(c6ccc(NC7CCC(=O)NC7=O)cc6F)CC5)CC4)cc3)nc2n1-c1ccc2c(n1)[C@@](O)(CC)CC2` (some centres unmarked) [Compound 166]: at HiBiT tagged Wee1 (setting [2]), the DC50 is less than 100 nM and the greatest degradation seen (Dmax) was more than 75%. Besides, in the data set on NCI-H1048 cells, the IC50 was 25 to 100 nM.

As for `CN1CN(c2c(Cl)cccc2Cl)C(=O)c2cnc(Nc3ccc(N4CCN(CCCNc5cccc6c5C(=O)N(C5CCC(=O)NC5=O)C6=O)CC4)cc3)nc21` (centres unmarked) [Compound 17], the maximal degradation (Dmax) at HiBiT tagged Wee1 (HT-1080, […]) was less than 50%. The same compound yielded a DC50 at HiBiT tagged Wee1 (setting [2]) of more than 1000 nM. Also, the IC50 with NCI-H1048 cells was more than 100 nM.
